This is an account of results in US20070254910A1, “CHEMICAL COMPOUNDS” (priority 2004, published 2007).

Structures are written as SMILES.

The first test concerns HIV. Kind of test: HOS HIV anti-infectivity assay (strain not stated). The class given is cell-based. As to conditions: HOS HIV anti-infectivity assay; read-out: Activity Level. The method, then:
Compounds were profiled against two HIV-1 viruses, the M-tropic (CCR5 utilizing) Ba-L strain and the T-tropic (CXCR4 utilizing) IIIB strain. Both viruses were propagated in human peripheral blood lymphocytes. Compounds were tested for there ability to block infection of the HOS cell line (expressing hCXCR4/hCCR5/hCD4/pHIV-LTR-luciferase) by either HIV-1 Ba-L or HIV-1 IIIB. Compound cytotoxicity was also examined in the absence of virus addition.
HOS cells (expressing hCXCR4/hCCR5/hCD4/pHIV-LTR-luciferase) were harvested and diluted in Dulbeccos modified Eagles media supplemented with 2% FCS and non-essential amino acid to a concentration of 60,000 cells/ml. The cells were plated into 96-well plates (100 ul per well) and the plates were placed in a tissue culture incubator (37° C.; 5% CO2/95% air) for a period of 24 h.
Subsequently, 50 ul of the desired drug solution (4 times the final concentration) was added to each well and the plates were returned to the tissue culture incubator (37° C.; 5% CO2/95% air) for 1 h. Following this incubation 50 ul of diluted virus was added to each well (approximately 2 million RLU per well of virus). The plates were returned to the tissue culture incubator (37° C.; 5% CO2/95% air) and were incubated for a further 96 h.
Following this incubation the endpoint for the virally infected cultures was quantified following addition of Steady-Glo Luciferase assay system reagent (Promega, Madison, Wis.). Cell viability or non-infected cultures was measured using a CellTiter-Glo luminescent cell viability assay system (Promega, Madison, Wis.). All luminescent readouts are performed on a Topcount luminescence detector (Packard, Meridien, Conn.).
For the compound `CN1CCN(c2cccc3nc(CN(C)C4CCCc5cccnc54)c(C(O)C(F)(F)F)n23)CC1` (stereo not shown) [Example 89B, 2,2,2-Trifluoro-1-(5-(4-methyl-1-piperazinyl)-2-{[methyl(5,6,7,8-tetrahydro-8-quinolinyl)amino]methyl}imidazo[1,2-a]pyridin-3-yl)ethanol], the IC50 lay within 100 to 500 nM.

The test is the same for the next values; noted with them: Human immunodeficiency virus 1, HOS HIV anti-infectivity assay; read-out: Activity Level.
On to `CN(C)CCOc1cccc2nc(CN(C)[C@H]3CCCc4cccnc43)c(CO)n12` [Example 78, [5-{[2-(Dimethylamino)ethyl]oxy}-2-({methyl[(8S)-5,6,7,8-tetrahydro-8-quinolinyl]amino}methyl)imidazo[1,2-a]pyridin-3-yl]methanol], for which the IC50 is below 100 nM.

In the case of `CN(Cc1nc2cccc(OCCN3CCCC3)n2c1CO)[C@H]1CCCc2cccnc21` [Example 80, (2-({Methyl[(8S)-5,6,7,8-tetrahydro-8-quinolinyl]amino}methyl)-5-{[2-(1-pyrrolidinyl)ethyl]oxy}imidazo[1,2-a]pyridin-3-yl)methanol], the IC50 was below 100 nM. Take `CN(Cc1nc2cccc(OCCN3CCCCC3)n2c1CO)[C@H]1CCCc2cccnc21` [Example 82, (2-({Methyl[(8S)-5,6,7,8-tetrahydro-8-quinolinyl]amino}methyl)-5-{[2-(1-piperidinyl)ethyl]oxy}imidazo[1,2-a]pyridin-3-yl)methanol]: the IC50 was below 100 nM.

With `CC(O)c1c(CN(C)[C@H]2CCCc3cccnc32)nc2cccc(N3CCN(C)CC3)n12` (stereo partly drawn) [Example 84, 1-[5-(4-Methyl-1-piperazinyl)-2-({methyl[(8S)-5,6,7,8-tetrahydro-8-quinolinyl]amino}methyl)imidazo[1,2-a]pyridin-3-yl]ethanol], the IC50 is below 100 nM.

For `CCC(O)c1c(CN(C)[C@H]2CCCc3cccnc32)nc2cccc(N3CCN(C)CC3)n12` (stereo partly drawn) [Example 85, 1-[5-(4-Methyl-1-piperazinyl)-2-({methyl[(8S)-5,6,7,8-tetrahydro-8-quinolinyl]amino}methyl)imidazo[1,2-a]pyridin-3-yl]-1-propanol], the IC50 is below 100 nM. The same measure, in the same setting: in the case of `COCc1c(CN(C)[C@H]2CCCc3cccnc32)nc2cccc(N3CCN(C)CC3)n12` [Example 86, (8S)—N-Methyl-N-{[3-[(methyloxy)methyl]-5-(4-methyl-1-piperazinyl)imidazo[1,2-a]pyridin-2-yl]methyl}-5,6,7,8-tetrahydro-8-quinolinamine] it was below 100 nM; in that of `CCOCc1c(CN(C)[C@H]2CCCc3cccnc32)nc2cccc(N3CCN(C)CC3)n12` [Example 87, (8S)—N-{[3-[(Ethyloxy)methyl]-5-(4-methyl-1-piperazinyl)imidazo[1,2-a]pyridin-2-yl]methyl}-N-methyl-5,6,7,8-tetrahydro-8-quinolinamine], below 100 nM. Same read-out and setting: as for `CC(c1nc2cccc(N3CCN(C)CC3)n2c1CO)N(C)[C@H]1CCCc2cccnc21` (stereo partly drawn) [Example 88, [5-(4-Methyl-1-piperazinyl)-2-(1-{methyl[(8S)-5,6,7,8-tetrahydro-8-quinolinyl]amino}ethyl)imidazo[1,2-a]pyridin-3-yl]methanol], the figure is below 100 nM. Same read-out and setting: in the case of `CN1CCN(c2cccc3nc(CN(C)C4CCCc5cccnc54)c(C(O)C(F)(F)F)n23)CC1` (stereo not shown) [Example 89A, 2,2,2-Trifluoro-1-(5-(4-methyl-1-piperazinyl)-2-{[methyl(5,6,7,8-tetrahydro-8-quinolinyl)amino]methyl}imidazo[1,2-a]pyridin-3-yl)ethanol] it was below 100 nM.
